Assays:
primary calvaria cells = test: β-catenin / Runx2 immunofluorescence in primary calvaria cells; format: cell-based, mouse
MC3T3E1 cells [1] = test: qRT-PCR of osteoblast differentiation markers in MC3T3E1 cells; format: cell-based, murine; conditions: dose‐dependent
Description: Figure 5 Effects of KY‐02327 on Wnt/β‐catenin pathway and osteoblast differentiation in osteoblasts • A MC3T3E1 cells were transfected with pTOPFLASH together with pCMV‐β‐gal. After 24 h, the cells were treated with indicated dose of KY‐02327 for 2 days. The luciferase activities of whole‐cell lysates were measured and normalized with β‐galactosidase activities. (n = 3) • B, C MC3T3E1 cells were treated with indicated concentrations of KY‐02327 for 2 days. β‐Catenin and α‐tubulin were detected by immunoblot (B) or immunofluorescence (C) analyses. Nuclei were counterstained with DAPI (C, blue). Scale bars, 100 μm. • D MC3T3E1 cells were treated with indicated concentrations of KY‐02327 for 14 days. The mRNA level of collagen 1a (Col1a) was measured by quantitative real‐time PCR (qRT–PCR). […] The mRNA level of osteocalcin (OCN) was measured by qRT–PCR. […] (error bars), and significance was assessed using unpaired Student's t‐test.
MC3T3E1 cells and primary calvaria cells were maintained in supplemented α‐MEM. […] For quantitative real‐time PCR (qRT–PCR), total mRNAs were extracted using TRIzol (Invitrogen), complementary DNAs were prepared using Maxime PCR PreMix (iNtRON Biotechnology, Sungnam, Korea), and the qRT–PCRs were performed using SYBR Premix Ex Taq (TaKaRa, Shiga, Japan) in the StepOnePlus Real‐Time PCR machine (Thermo Fisher Scientific, Waltham, MA). […]

hERG potassium channel = hERG potassium channel (Homo sapiens, UniProt Q12809); test: hERG binding assay (fluorescence polarization); conditions: human; 10 µM compound; fluorescence polarization
Sequence of hERG potassium channel (Q12809 whole entry): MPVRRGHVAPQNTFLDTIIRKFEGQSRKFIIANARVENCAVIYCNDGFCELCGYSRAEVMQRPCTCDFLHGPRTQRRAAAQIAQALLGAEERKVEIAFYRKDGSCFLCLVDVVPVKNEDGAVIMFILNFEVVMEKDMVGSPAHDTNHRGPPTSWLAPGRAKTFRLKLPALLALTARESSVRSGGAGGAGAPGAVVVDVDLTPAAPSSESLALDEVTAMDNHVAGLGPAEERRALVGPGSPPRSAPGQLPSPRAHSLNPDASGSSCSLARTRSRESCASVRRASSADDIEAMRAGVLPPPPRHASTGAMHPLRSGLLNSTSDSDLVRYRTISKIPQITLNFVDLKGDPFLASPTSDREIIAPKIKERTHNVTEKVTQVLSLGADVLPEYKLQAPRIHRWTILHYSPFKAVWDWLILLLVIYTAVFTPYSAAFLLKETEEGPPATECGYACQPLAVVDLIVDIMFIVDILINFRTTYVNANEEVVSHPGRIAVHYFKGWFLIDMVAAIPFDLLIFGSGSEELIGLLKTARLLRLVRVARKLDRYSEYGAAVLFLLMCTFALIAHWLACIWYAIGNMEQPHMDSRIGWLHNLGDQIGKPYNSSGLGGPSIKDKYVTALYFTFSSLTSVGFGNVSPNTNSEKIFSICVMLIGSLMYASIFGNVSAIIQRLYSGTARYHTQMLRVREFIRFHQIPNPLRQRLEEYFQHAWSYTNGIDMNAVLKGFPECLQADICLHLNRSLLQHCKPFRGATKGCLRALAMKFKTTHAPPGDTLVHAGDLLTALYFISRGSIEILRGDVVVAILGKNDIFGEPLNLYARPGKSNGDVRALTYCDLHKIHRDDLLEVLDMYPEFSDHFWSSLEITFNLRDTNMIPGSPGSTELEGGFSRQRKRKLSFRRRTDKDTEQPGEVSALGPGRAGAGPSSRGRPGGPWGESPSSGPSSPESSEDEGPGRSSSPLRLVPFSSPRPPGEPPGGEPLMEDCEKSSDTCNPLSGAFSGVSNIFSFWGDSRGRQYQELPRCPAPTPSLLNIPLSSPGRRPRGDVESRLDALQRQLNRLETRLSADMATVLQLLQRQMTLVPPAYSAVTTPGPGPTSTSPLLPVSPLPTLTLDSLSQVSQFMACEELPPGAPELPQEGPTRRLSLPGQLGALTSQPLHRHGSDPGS

CYP1A2 = target: T1, CYP1A2 (Homo sapiens, UniProt P05177); test: in vitro; conditions: probe fluorogenic P450 substrates
T1 sequence (P05177 1-516): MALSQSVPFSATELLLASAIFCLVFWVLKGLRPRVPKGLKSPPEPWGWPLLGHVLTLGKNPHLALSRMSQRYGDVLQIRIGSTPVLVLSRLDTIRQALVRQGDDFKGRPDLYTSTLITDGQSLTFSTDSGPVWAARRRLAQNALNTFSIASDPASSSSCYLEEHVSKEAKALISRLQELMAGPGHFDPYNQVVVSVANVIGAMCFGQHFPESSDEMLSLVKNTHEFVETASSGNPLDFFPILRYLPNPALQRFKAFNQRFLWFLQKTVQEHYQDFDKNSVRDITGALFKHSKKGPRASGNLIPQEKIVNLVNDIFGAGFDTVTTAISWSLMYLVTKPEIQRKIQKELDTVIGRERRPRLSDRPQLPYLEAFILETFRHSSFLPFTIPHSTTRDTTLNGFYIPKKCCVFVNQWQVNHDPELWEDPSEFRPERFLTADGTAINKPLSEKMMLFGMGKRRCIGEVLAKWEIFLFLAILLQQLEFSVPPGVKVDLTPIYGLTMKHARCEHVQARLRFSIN

[2] = target: T2, Cytochrome P450 (CYP) 1A2 (Homo sapiens, UniProt P05177); test: Cytochrome P450 inhibition assay, 1A2; conditions: 10 μM; 1A2, C29 and 3A4 together
T2 sequence (P05177 1-516): T1 sequence (P05177 1-516)

Dvl PDZ domain = target: T3, Dvl PDZ domain (Homo sapiens, UniProt O14640); test: Fluorescence quenching of Dvl PDZ domain; conditions: read-out: binding affinity between Dvl PDZ domain and compound
T3 construct: plasmid DNA encoding Dvl-1247- 341 (the Dvl PDZ domain); His-tag (TEV-cleavable) (cleaved yes); made in house; host or cells: E. coli BL21 (DE3)
T3 sequence (O14640 247-341 limits assumed): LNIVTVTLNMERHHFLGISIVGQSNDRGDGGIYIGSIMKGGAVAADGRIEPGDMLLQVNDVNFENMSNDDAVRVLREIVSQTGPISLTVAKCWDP
Description: Figure 4 Binding of KY‐02327, a KY‐02061 analog, on Dvl PDZ domain • A The chemical structure of KY‐02327. • B A competition curve for the Dvl–CXXC5 interaction by KY‐02327. • C Fluorescence quenching plot of Dvl PDZ domain upon addition of different amounts of KY‐02327. From top to bottom, final molar ratio between Dvl PDZ and KY‐02327 was 1:0, 1:1, 1:2, 1:3, 1:4, 1:5, 1:6, 1:7, 1:8, 1:9, 1:10, 1:15, 1:20, and 1:25, respectively. • D–F ^1H‐^15N‐HSQC analyses were performed to analyze the interaction of ^15N‐labeled Dvl PDZ domain with KY‐02327. […] Plot of chemical shift changes (Δδ) as a function of residue number in molecular ratio 1:20 (E, a red‐colored line indicates the line for Δδ = 0.05). The residues with Δδ greater than 0.05 are visualized as a stick model on the ribbon representation of the Dvl PDZ domain structure (F). • G Molecular docking of KY‐02061 or KY‐02327 to Dvl PDZ domain was analyzed by in silico experiments. The superimposed structure of KY‐02061 (yellow) and KY‐02327 (cyan) on the surface of Dvl PDZ domain (gray) was visualized.

MC3T3E1 cells [3] = test: β-catenin and Runx2 immunoblot/immunofluorescence in MC3T3E1 cells; format: cell-based, murine; conditions: 2 days, dose‐dependent
Description: Figure 5 Effects of KY‐02327 on Wnt/β‐catenin pathway and osteoblast differentiation in osteoblasts • A MC3T3E1 cells were transfected with pTOPFLASH together with pCMV‐β‐gal. After 24 h, the cells were treated with indicated dose of KY‐02327 for 2 days. The luciferase activities of whole‐cell lysates were measured and normalized with β‐galactosidase activities. (n = 3) • B, C MC3T3E1 cells were treated with indicated concentrations of KY‐02327 for 2 days. β‐Catenin and α‐tubulin were detected by immunoblot (B) or immunofluorescence (C) analyses. Nuclei were counterstained with DAPI (C, blue). Scale bars, 100 μm. • D MC3T3E1 cells were treated with indicated concentrations of KY‐02327 for 14 days. The mRNA level of collagen 1a (Col1a) was measured by quantitative real‐time PCR (qRT–PCR). (n = 3) • E MC3T3E1 cells were treated with indicated concentrations of KY‐02327 for 21 days. The mRNA level of osteocalcin (OCN) was measured by qRT–PCR. (n = 3) Data Information: For A, D, and E, the data are the mean ± s.d. (error bars), and significance was assessed using unpaired Student's t‐test. […]

SMILES | nuclear accumulation of β‐catenin (primary calvaria cells; 2 μM, 2 days) | levels of Runx2 and β‐catenin (primary calvaria cells; 5 μM, 14 days) | mRNA level of collagen 1a (Col1a) (MC3T3E1 cells [1]; 14 days) | mRNA level of osteocalcin (OCN) (MC3T3E1 cells [1]; 21 days) | inhibition at 10 µM (hERG potassium channel) [%] | inhibition at 10 µM (CYP1A2) [%] | inhibitory effect on the liver enzymes (cytochrome P450) [2] | Kd (Dvl PDZ domain) [µM] | β‐catenin protein level together with Runx2, nuclear β‐catenin (MC3T3E1 cells [3])
CCOC(=O)Cn1c(C(=O)OCC)cc2cc(OS(=O)(=O)c3ccc(C)cc3)ccc21 [KY‐02061] | strong accumulation | increased levels | – | – | – | – | – | – | –
CCOC(=O)c1cc2cc(O)ccc2n1CC(=O)NCCN1CCCCC1 [KY‐02327] | – | – | increased | increased | 10.9 ± 2.07 | 0 | no inhibitory effect | 8.31 ± 0.8 | increased

Reference: PMC4818757, “Small molecule inhibitors of the Dishevelled‐CXXC5 interaction are new drug candidates for bone anabolic osteoporosis therapy” (EMBO Molecular Medicine, 2016)
